Reference: ChEMBL document CHEMBL3045394, “Synthesis and antiinflammatory activity of certain benzothieno[3,2-d][1,2,4]triazolo[4,3-b] pyridazine derivatives” (2012)

The compounds below were run on Rattus norvegicus (assay: Anti-inflammatory activity inRattus norvegicus albino (rat) assessed as inhibition of carageenaan-induced paw edema at 10 mg/kg, po administered 1 hr prior to carrageenan-challenge measured after 4 hr relative to control).

In order of falling inhibition in vivo at 10 mg/kg:
1. COc1ccccc1-c1nnc2c3c(sc4c(Br)cccc43)c(NN)nn12  78.7%
2. NNc1nn2cnnc2c2c1sc1c(Br)cccc12  52.8%
3. COc1ccc2c(c1)c(CC(=O)O)c(C)n2C(=O)c1ccc(Cl)cc1 [INDOMETHACIN]  50.5%
4. Oc1nn2cnnc2c2c1sc1c(Br)cccc12  9.7%
5. COc1ccccc1-c1nnc2c3c(sc4c(Br)cccc43)c(N3CCCCC3)nn12  8.4%
